“And” between values parts separate entries of the source, which are not always exact repeats. Equal values may be shown once.
Key:
[1] = Fluorescence quantum yield; format: physicochemical; details: ethanol
Method: The absorptions of both reference and sample solutions were matched at ca 0.2 at the excitation wavelength of 515.5 nm, and the solutions were diluted by a factor 10 before collecting the fluorescence. The fluorescence quantum yield was obtained from the ratio of the fluorescence bands of the sample vs the reference, multiplied by the fluorescence quantum yield of the reference, 0.012 according to [12], after correction for the difference of refractive indexes of ethanol and toluene.
This is indicative of little aggregation between the molecules, which exist mostly as monomers at these concentrations in the solvents studied. Table 1 presents typical red and infrared molar absorption coefficients (εmax) and wavelength maxima. The same table also presents representative fluorescence quantum yields (ΦF) of Luzitins. The fluorescence quantum yields decrease of these molecules decrease in the presence of chlorine substituents, a fingerprint of the heavy atom effect expected for such molecules.

[2] = tested on: PC-3 (human prostate carcinoma); assay: Cytotoxicity in the dark, resazurin assay; format: cell-based
Method: The cell lines employed in laser irradiation were the HT-29 (human colon carcinoma), PC-3 (human prostate carcinoma), SW2 (human small cell lung cancer), A-549 (human non-small cell lung cancer). S91/I3 (mouse melanoma) and CT26 (mouse colon carcinoma). They were used both for cytotoxicity and photocytotoxicity experiments. PC-3. SW2 and S91113 cells were cultured in RPMI-1640 medium (Sigma-Aldrich, Steinheim, Germany) and HT-29, A-549 and CT26 cells were cultured in Dulbecco's Modified Eagle Medium (DMEM) (Cambrex Bioscience, Verviers, Belgium). Both cell culture mediums were supplemented with 10% heat-inactivated Fetal Bovine Serum (FBS) (Cambrex Bioscience, Verviers, Belgium) and 100 IU/ml penicillin-100 μg/ml streptomycin (Cambrex Bioscience, Verviers, Belgium). The DMEM medium used for CT26 cells was also supplemented with HEPES 10 mM. Cell lines were maintained in 75 cm^2 flasks (Orange Scientific, Braine-l'Alleud, Belgium) at 37° C. in humidified atmosphere with 5% CO2. For the in vitro studies, cells at 85-90% confluence, were detached with Trypsin-Versene-EDTA solution (Cambrex Bioscience, Verviers, Belgium), counted and seeded in flat-bottom 96-well plates at the desired densities.
Cell viability assay. In the end of the experiences cell viability was evaluated by the resazurin reduction assay. Briefly, resazurin (Sigma-Aldrich, Steinhelm, Germany) stock solution (0.1 mg/ml in phosphate buffer saline (PBS) pH 7.4) was diluted 10% in culture medium without FBS or antibiotics and 200 μl were added to the cells in each well. Plates were incubated for 3-4 h at 37° C. The absorbance values of each well were measured at 540 nm and 630 nm using a microplate reader Multiskan Ex (Thermo-Electron Corporation, Vartaa, Finland).
Cytotoxicity. Cells were seeded in flat-bottom 96-well plates (Orange Scientific, Braine-l'Alleud, Belgium) in 100 μl of culture medium and were allowed to adhere overnight. The photosensitizer was added to the cells (diluted in 100 μl culture medium) at final concentrations between 0.01 and 1 mM. Each concentration was tested in quadruplicate. The incubation periods in the dark at 37° C. were two times the doubling time for the tested cell line. After the incubation the cell viability was evaluated. In parallel control experiments, cells were incubated without the drug. Cytotoxicity was quantified by expressing cell death relatively to untreated cells (% of control cells). The results were plotted as dose response curves (% of cell death as a function of the concentration of the DRUG), which allow the determination of the concentration that inhibit 50% of cell growth (IC50).

[3] = Triplet lifetime by laser flash photolysis; format: physicochemical; details: air-saturated ethanol
Method: Absorption spectra were recorded on a Shimadzu UV-2100 spectrophotometer or with a Carry 50 Biospectrophotometer (Varian, Mulgrave, USA). Fluorescence spectra were measured with a Spex Fluorolog 3 spectrophotometer, with correction for the wavelength dependence system (RCA C31034 photomultiplier), or with a PerkinElmer LS 50 spectrofluorimeter. Transient absorption spectra were measured with an Applied Photophysics LKS 60 nanosecond laser flash photolysis kinetic spectrometer, using the third harmonic of a Spectra-Physics Quanta Ray GCR 130-01 Nd/YAG laser for excitation, a Hamamatsu 1P28 photomultiplier and a Hewlett-Packard Infinium oscilloscope (1 GS/s). Flash photolysis measurements were made in the presence of air and in argon saturated solutions. Photoacoustic calorimetry employed the same Nd/YAG laser, a home-made front-face photoacoustic cell with a 2.25 MHz Panametrics transducer (model 5676) and a Tektronix DSA 601 transient recorder. Room-temperature singlet-oxygen phosphorescence was measured at 1270 nm with a Hamamatsu R5509-42 photomultiplier, cooled to 193 K in a liquid nitrogen chamber (Products for Research model PC176TSCE005), following laser excitation of aerated solutions at 355 nm, using an adapted Applied Photophysics spectrometer. Singlet oxygen emission at 1270 nm was also monitored with a liquid nitrogen-cooled germanium detector (North Coast) coupled to a Tectronix Digitizing scope (TDS 520B), following sample excitation with 5 ns laser pulses of the third harmonic (355 nm) generated by a Q-switched Nd:YAG laser (Continuum Surelite II).
The triplet-triplet absorption spectra and the triplet lifetimes of the photosensitisers (τT) were measured with the transient absorption spectra equipment described above, with excitation at 355 nm, where the solutions had absorbances between 0.25 and 0.30.
The triplet-triplet absorption spectra of the Luzitins measured in this work were in good agreement with that in the literature data for chlorins and bacteriochlorins. All triplet decays were clearly mono-exponential. […] Such values are consistent with diffusion limited energy transfer from the triplet state of the sensitizer to molecular oxygen through a charge-transfer interaction.

[4] = tested on: HT-29 (human adenocarcinoma); assay: Cell photosensitization, 748 nm diode laser, resazurin; format: cell-based; details: for concentration of sensitizer required to kill 90% of cells (LD90): 6 J/cm^2 diode laser irradiation at 28.5 mW
[5] = tested on: A-549 (human non-small cell lung carcinoma); assay: as above; format: cell-based; details: 6 J/cm^2 diode laser irradiation at 28.5 mW

Compound: O=S(=O)(O)c1ccc(Cl)c(-c2c3nc(c(-c4c(Cl)ccc(S(=O)(=O)O)c4Cl)c4ccc([nH]4)c(-c4c(Cl)ccc(S(=O)(=O)O)c4Cl)c4nc(c(-c5c(Cl)ccc(S(=O)(=O)O)c5Cl)c5ccc2[nH]5)CC4)CC3)c1Cl [Luzitin-Cl2, 5,10,15,20-tetrakis(2,6-dichloro-3-sulfonylphenyl)bacteriochlorin]
- ΦF (fluorescence quantum yield) [1]: 0.0062
- highest concentration that causes relatively no effect in viability in the dark ([2]; PC-3, dark): 0.05 mM
- τT (air) triplet lifetime [3]: 226 nsec
- concentration of sensitizer required to kill 90% of cells (LD90) [4]: 50 µM

Compound: CCNS(=O)(=O)c1ccc(Cl)c(-c2c3nc(c(-c4c(Cl)ccc(S(=O)(=O)NCC)c4Cl)c4ccc([nH]4)c(-c4c(Cl)ccc(S(=O)(=O)NCC)c4Cl)c4nc(c(-c5c(Cl)ccc(S(=O)(=O)NCC)c5Cl)c5ccc2[nH]5)CC4)CC3)c1Cl [Luzitin-Cl2Et, 5,10,15,20-tetrakis(2,6-dichloro-3-N-ethylsulfamoylphenyl)bacteriochlorin]
- ΦF (fluorescence quantum yield) [1]: 0.0081
- τT (air) triplet lifetime [3]: 265 nsec
- concentration of sensitizer required to kill 90% of cells (LD90) [5]: 10 µM
- concentration of sensitizer required to kill 90% of cells (LD90) [4]: 10 µM

Compound: O=S(=O)(O)c1ccc(Cl)c(-c2c3nc(c(-c4cc(S(=O)(=O)O)ccc4Cl)c4ccc([nH]4)c(-c4cc(S(=O)(=O)O)ccc4Cl)c4nc(c(-c5cc(S(=O)(=O)O)ccc5Cl)c5ccc2[nH]5)CC4)CC3)c1 [Luzitin-Cl, 5,10,15,20-tetrakis(2-chloro-5-sulfonylphenyl)bacteriochlorin]
- ΦF (fluorescence quantum yield) [1]: 0.0403
- IC50 ([2]; PC-3, incubation 72 h in the dark, read-out: IC50 dark toxicity): 600 µM
- τT (air) triplet lifetime [3]: 240 nsec

Compound: CNS(=O)(=O)c1ccc(F)c(-c2c3nc(c(-c4cc(S(=O)(=O)NC)ccc4F)c4ccc([nH]4)c(-c4cc(S(=O)(=O)NC)ccc4F)c4nc(c(-c5cc(S(=O)(=O)NC)ccc5F)c5ccc2[nH]5)CC4)CC3)c1 [Luzitin-FMet, 5,10,15,20-tetrakis(2-fluoro-5-N-methylsulfamoylphenyl)bacteriochlorin]
- ΦF (fluorescence quantum yield) [1]: 0.0589
- concentration of sensitizer required to kill 90% of cells (LD90) [5]: 0.5 µM
- cell kill ([4]; 1 μM, laser light dose 6 J/cm^2, incubation 18 hours): 100%
- concentration of sensitizer required to kill 90% of cells (LD90) [4]: 0.5 µM and 1 µM
